In the NIST ThermoML archive (doi:10.1021/je400581e):

Assays:
[1] = Liquid; for mass density: 298.15 K, 101.33 kPa, Vibrating tube method
[2] = refractive index (Na D-line) (dimensionless); conditions: 298.15 K; 101.33 kPa; Liquid; Standard Abbe refractometry

CC(C)CO [2-methyl-1-propanol]
Conditions	mass density [kg/m3]	refractive index
[1]	795.35	–
[2]	–	1.3927

[1], Ebulliometric method (Recirculating still)
Conditions	vapor or sublimation pressure [kPa]
347.84 K	26.2
351.07 K	30.19
359.54 K	43.66
362.99 K	50.45
368.56 K	63.25
372.09 K	72.73
372.56 K	74.66
375.06 K	81.58
378.19 K	91.8
380.73 K	101.32
382.25 K	106.5

CC(C)O [propan-2-ol]
Conditions	mass density [kg/m3]	refractive index
[1]	779.36	–
[2]	–	1.374

[1], Ebulliometric method (Recirculating still)
Conditions	vapor or sublimation pressure [kPa]
325.2 K	26.21
328 K	30.2
335.73 K	43.66
338.88 K	50.43
343.99 K	63.24
347.25 K	72.74
347.86 K	74.65
349.98 K	81.59
352.84 K	91.8
355.37 K	101.3
356.56 K	106.52

CC(C)CCO [3-methylbutan-1-ol]
Conditions	mass density [kg/m3]	refractive index
[1]	806.21	–
[2]	–	1.4035

[1]
Conditions	vapor or sublimation pressure [kPa]
395.68 K	74.7
404.7 K	101.3
404.71 K	101.3
